In US6613534B2, “MAP-2 as a determinant of metastatic potential” (Wake Forest University Health Sciences, priority 2001, dated 2003):
Entries after “also recorded” stand apart in the source; their conditions may differ. Where two headings read alike, the source gives them in different places.

How the values were obtained:
[1] = test system: TYRP1 mRNA in SK-MEL-19 melanoma cells; test: Northern blot of total RNA for TYRP1 expression (FIG. 8); type: cell-based, human
[2] = test system: MAP-2 mRNA in SK-MEL-19 melanoma cells; test: Northern blot of total RNA for MAP-2 expression, cAMP and protein kinase C pathway agents (FIG. 8); type: cell-based, human
[3] = test system: MAP-2 cDNA (approximately 450 bp fragment) in SK-MEL-19 melanoma cells; test: Differential display RT-PCR of control and HMBA-treated cells; type: cell-based, human; conditions: 5 mM HMBA-treated vs control SK-MEL-19 cells
Description: Differential display was used to characterize changes in gene expression associated with growth inhibition in melanoma cells. For differential display (DD), RT-PCR was performed using a GeneAmp System 2400 (Perkin-Elmer Corp., Foster City, Calif.). DD was performed using the DeltaTM Differential Display Kit (Clontech Laboratories Inc.). […] Diluted cDNA (1:12.5 and 1:50) was used to amplify DD-PCR product in the presence of [α-^33P]dATP (Dupont NEN, Boston, Mass.) using a random combination of arbitrary primers and oligo (dT) primers. PCR products were resolved by electrophoresis in a 5% polyacrylamide, 8 M urea sequencing gel. The gel was dried and exposed to Biomax MS film (Kodak, Rochester, N.Y.). Bands differentially expressed between untreated and treated samples were cut, eluted, re-amplified, sequenced by the ABI 377 DNA Sequencer (Perkin-Elmer Corp., Foster City, Calif.). Differential display analysis was performed using RNA obtained from control and HMBA-treated SK-MEL-19 melanoma cells. Primer […] NO: 4) and oligo dT primer […] U32996; nucleotides 1931-2384). […] Cell Biol., 106:779-783 (1988)).

[4] = test system: cultured human metastatic melanoma cells; conditions: cited from earlier work
[5] = test system: TYRP1 in cultured human metastatic melanoma cells; conditions: cited from earlier work
[6] = test system: SK-MEL-19 human metastatic melanoma cell line; test: Cell morphology of HMBA-treated melanoma cells (FIG. 3); type: cell-based; conditions: SK-MEL-19, 5 mM HMBA for 5 days
[7] = test system: mouse erythroleukemia cells (MEL) and a variety of human tumor cells; conditions: cited from earlier work
[8] = SK-MEL-19, 5 mM HMBA, 2.5 nM CT, 10 ng/ml TPA or combinations, 6, 24 and 48 h

| Compound | TYRP1 mRNA expression [1] | MAP-2 expression (MAP-2c mRNA) [2] | expression of ~450 bp MAP-2 cDNA by differential display [3] | TYRP1 mRNA expression [1, 8] | MAP-2 expression (MAP-2c mRNA) [2, 8] | cell growth [4] | TYRP1 expression [5] | cell morphology [6] | cell cycle distribution [7] | terminal differentiation ([7]; mouse erythroleukemia cells (MEL) and a variety of human tumor cells) |
| --- | --- | --- | --- | --- | --- | --- | --- | --- | --- | --- |
| CCCCCCCCCCCCCC(=O)O[C@@H]1[C@@H](C)[C@@]2(O)[C@@H](C=C(CO)C[C@]3(O)C(=O)C(C)=C[C@@H]23)[C@@H]2C(C)(C)[C@]12OC(C)=O [TPA, 12-O-tetradecanoyl phorbol-13-acetate] | did not cause down-regulation of TYRP1 mRNA | did not induce MAP-2 expression; also recorded: does not change MAP-2 expression | – | – | – | – | – | – | – | – |
| CC(=O)NCCCCCCNC(C)=O [HMBA, hexamethylene bisacetamide] | – | – | over expressed in treated cells; also recorded: generates an approximately 450 bp cDNA | extinction of TYRP1 expression | up-regulation of MAP-2 expression was detected | inhibits growth | selective down-regulation | induction of dendritic morphology; also recorded: formation of dendrite-like structures | accumulation of cells in G0/G1 phase with a significant decrease in population of cells in G2/M phase | induce terminal differentiation |
| cholera toxin [CT] | did not cause down-regulation of TYRP1 mRNA | did not induce MAP-2 expression; also recorded: does not change MAP-2 expression | – | – | – | – | – | – | – | – |
